Reference: patent US20230051589A1, “COMPOUNDS AND COMPOSITIONS FOR TREATING CONDITIONS ASSOCIATED WITH NLRP ACTIVITY” (Novartis AG, priority 2018, published 2023)
Read-outs that look alike come from different tables or passages of the source.

Test system: IL-1β production in PMA-differentiated THP-1 cells
Test: IL-1β production in PMA-differentiated THP-1 cells stimulated with gramicidin (hTHP-1 assay, 2% fetal bovine serum; Procedures 1-3)
Format: cell-based, human
Summary of the method: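 PMA-primed THP-1 cells (20 ng/ml PMA, 16-18 h) in RPMI with 2% FBS were pre-incubated with compounds for 1 h, from 100 μM downward in 3-fold steps (0.37% DMSO final), then stimulated with 5 μM gramicidin for 2 h. IL-1β in the supernatant was quantified by HTRF.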

[1] = Table B3, hTHP-1 assay containing 2% fetal bovine serum, gramicidin stimulation, IL-1β readout, read-out: hTHP-1 IC50
[2] = hTHP-1 assay containing 2% fetal bovine serum, Table B2, class symbols, read-out: IC50
[3] = Homo sapiens, THP-1, hTHP-1 assay containing 2% fetal bovine serum, Table B2, class symbols, read-out: IC50
[4] = Homo sapiens, THP-1, Table B3, hTHP-1 assay containing 2% fetal bovine serum, gramicidin stimulation, IL-1β readout, read-out: hTHP-1 IC50

Row | IC50 [2] | IC50 [3] | other results | Molecule
1 | – | – | IC50 [1]: 5000 to 30000 nM | CN(C)Cc1ccc(S(N)(=O)=NC(=O)Nc2c3c(cc4c2CCC4)CCC3)s1 (single isomer, unassigned) [Example 804, (S) or (R)-5-((dimethvlamino)methyl)-N′-((1,2,3,5,6,7-hexahydro-s-indacen-4-yl)carbamoyl)thiophene-2-sulfonimidamide]
2 | 200 to 1000 nM | – | – | CC(C)(O)c1cc(S(N)(=O)=NC(=O)Nc2c3c(c(C#N)c4c2CCC4)CCC3)nn1-c1ccccc1 (single isomer, unassigned) [Example 575, (R) or (S)-N′-((8-cyano-1,2,3,5,6,7-hexahydro-s-indacen-4-yl)carbamoyl)-5-(2-hydroxypropan-2-yl)-1-pheny-1H-pyrazole-3-sulfonimidamide]
3 | – | 200 to 1000 nM | – | CN(C)C(c1ccc(S(N)(=O)=NC(=O)Nc2c3c(cc4c2CCC4)CCC3)cc1)C(F)(F)F (single isomer, unassigned) [Example 664]
4 | – | – | IC50 [4]: 40 to 200 nM | NS(=O)(=NC(=O)Nc1c2c(cc3c1CCC3)CCC2)c1cc2c(s1)CCNC2 (stereo not drawn) [Example 724, N′-((1,2,3,5,6,7-hexahydro-s-indacen-4-yl)carbamoyl)-4,5,6,7-tetrahydrothieno[3,2-c]pyridine-2-sulfonimidamide]
5 | 5000 to 30000 nM | – | – | CN(C)Cc1cnc(S(N)(=O)=NC(=O)Nc2c3c(cc4c2CCC4)CCC3)c(F)c1 (single isomer, unassigned) [Example 517, (S) or (R)-5-((dimethylamino)methyl)-3-fluoro-N′-((1,2,3,5,6,7-hexahydro-s-indacen-4-yl)carbamoyl)pyridine-2-sulfonimidamide]
6 | – | – | IC50 [1]: 1000 to 5000 nM | NS(=O)(=NC(=O)Nc1c2c(cc3c1CC3)CCC2)c1cc2c(s1)CCN[C@@H]2C(F)F (single isomer, unassigned) [Example 875, (S or R,4S)-4-(difluoromethyl)-N′-((2,4,5,6-tetrahydro-1H-cyclobula[f]inden-3-yl)carbamoyl)-4,5,6,7-tetrahydrothieno[3,2-c]pyridine-2-sulfonimidamide]
7 | – | 200 to 1000 nM | – | NS(=O)(=NC(=O)Nc1c2c(cc3c1CCC3)CCC2)c1ccc([C@@H]2CCCN2)s1 (stereo partly drawn) [921f^]
8 | – | 5000 to 30000 nM | – | COc1ccc([C@@H](C)NS(=O)(=NC(=O)Nc2c3c(cc4c2CCC4)CCC3)c2cnc(C(C)(C)O)s2)cc1 (stereo partly drawn) [Example 712, N′-((1,2,3,5,6,7-hexahydro-s-indacen-4-yl)carbamoyl)-2-(2-hydroxypropan-2-yl)-N-((R)-1-(4-methoxyphenyl)ethyl)thiazole-5-sulfonimidamide]
9 | 200 to 1000 nM | – | – | CC(C)(O)c1cncc(S(N)(=O)=NC(=O)Nc2c3c(c(C#N)c4c2CCC4)CCC3)c1 (single isomer, unassigned) [Example 522, (R) or (S)-N′-((8-cyano-1,2,3,5,6,7-hexahydro-s-indacen-4-yl)carbamoyl)-5-(2-hydroxypropan-2-yl)pyridine-3-sulfonimidamide]
10 | – | 5000 to 30000 nM | – | C[C@H](N[S@@](=O)(=NC(=O)Nc1c2c(cc3c1CCC3)CCC2)c1cnc(C(C)(C)O)s1)c1ccccc1 [Compound 887a]
11 | – | – | IC50 (Homo sapiens, THP-1, Table B1, hTHP-1 assay containing 2% fetal bovine serum, gramicidin stimulation, IL-1β readout, read-out: hTHP-1 IC50 (average)): 1000 to 5000 nM | C#CCCC(=O)N(C)Cc1ccc(S(N)(=O)=NC(=O)Nc2c3c(cc4c2CCC4)CCC3)cc1 (single isomer, unassigned) [Example 312, (S) or (R)-N-(4-(N′-((1,2,3,5,6,7-hexahydro-s-indacen-4-yl)carbamoyl)-sulfamidimidoyl)benzyl)-N-methylpent-4-ynamide]
12 | – | 1000 to 5000 nM | – | CC(C)(O)c1cc(C#N)cc(S(N)(=O)=NC(=O)Nc2c3c(c(C#N)c4c2CCC4)CCC3)c1 (stereo not drawn) [Example 482, 3-Cyano-N′-((8-cyano-1,2,3,5,6,7-hexahydro-s-indacen-4-yl)carbamoyl)-5-(2-hydroxypropan-2-yl)benzenesulfonimidamide]
13 | 5000 to 30000 nM | – | – | NS(=O)(=NC(=O)Nc1c2c(cc3c1CCC3)CCC2)c1cnn2c1OCCC2 (single isomer, unassigned) [Example 568, (S) or (R)-N′-((1,2,3,5,6,7-hexahydro-s-indacen-4-yl)carbamoyl)-6,7-dihydro-5H-pyrazolo[5,1-b][1,3]oxazine-3-sulfonimidamide]
14 | – | 5000 to 30000 nM | – | CN1CCN(Cc2cccc(S(N)(=O)=NC(=O)Nc3c4c(cc5c3CCC5)CCC4)c2)CC1 (stereo not drawn) [Example 505, N′-((1,2,3,5,6,7-hexahydro-s-indacen-4-yl)carbamoyl)-3-((4-methylpiperazin-1-yl)methyl) benzenesulfonimidamide]
15 | 1000 to 5000 nM | – | – | (S)- and (R)-3-Fluoro-5-((methylamino)methyl)-N′-((2,4,5,6-tetrahydro-1H-cyclobuta[f]inden-3-yl)carbamoyl)thiophene-2-sulfonimidamide [Example 671]
16 | – | – | IC50 (Homo sapiens, THP-1, hTHP-1 assay containing 2% fetal bovine serum, Table B2, given as bound, read-out: IC50): > 30000 nM | CC(OC(F)F)c1ccc(S(N)(=O)=NC(=O)Nc2c3c(cc4c2CCC4)CCC3)cc1 (mixture of isomers) [Example 639, (R,S) and (S,S)-4-(1-(difluoromethoxy)ethyl)-N′-((1,2,3,5,6,7-hexahydro-s-indacen-4-yl)carbamoyl) benzenesulfonimidamide (mixture of two isomers)]
17 | – | – | IC50 [1]: 8 to 40 nM | NS(=O)(=NC(=O)Nc1c2c(cc3c1CC3)CCC2)c1cc2c(s1)CCNC2 (single isomer, unassigned) [Example 716]
18 | – | 1000 to 5000 nM | – | N[S@@](=O)(=NC(=O)Nc1c2c(cc3c1CCC3)CCC2)c1ccc(CNCC(F)F)cc1 [Example 708, (R)-4-(((2,2-difluoroethyl)amino)methyl)-N′-((1,2,3,5,6,7-hexahydro-s-indacen-4-yl)-carbamoyl)benzenesulfonimidamide]
19 | – | – | IC50 [1]: 1000 to 5000 nM | CN1CCc2sc(S(N)(=O)=NC(=O)Nc3c4c(cc5c3CC5)CCC4)c(F)c2C1 (single isomer, unassigned) [Example 836, (S) or (R)-3-fluoro-5-methyl-N′-((2,4,5,6-tetrahydro-1H-cyclobuta[f]inden-3-yl)carbamoyl)-4,5,6,7-tetrahydrothieno[3,2-c]pyridine-2-sulfonimidamide]
20 | – | – | IC50 [4]: 40 to 200 nM | CNC(c1ccc(S(N)(=O)=NC(=O)Nc2c3c(cc4c2CCC4)CCC3)s1)C1CC1 (stereo not drawn) [Example 723, 5-(cyclopropyl(methylamino)methyl)-N′-((1,2,3,5,6,7-hexahydro-s-indacen-4-yl)carbamoyl)thiophene-2-sulfonimidamide]
21 | – | – | IC50 [1]: 1000 to 5000 nM | CC(C)(O)c1ccnc(S(N)(=O)=NC(=O)Nc2c3c(c(C#N)c4c2CCC4)CCC3)c1 (single isomer, unassigned) [Example 828, (S) or (R)-N′-((8-cyano-1,2,3,5,6,7-hexahydro-s-indacen-4-yl)carbamoyl)-4-(2-hydroxypropan-2-yl)pyridine-2-sulfonimidamide]
22 | 1000 to 5000 nM | – | – | CC(C)(O)c1nc(CO)c(S(N)(=O)=NC(=O)Nc2c3c(cc4c2CCC4)CCC3)s1 (single isomer, unassigned) [Example 542, (S) or (R)-N′-((1,2,3,5,6,7-hexahydro-s-indacen-4-yl)carbamoyl)-4-(hydroxymethyl)-2-(2-hydroxypropan-2-yl)thiazole-5-sulfonimidamide]
23 | – | 1000 to 5000 nM | – | CN(C)Cc1ccc(S(N)(=O)=NC(=O)Nc2c3c(cc4c2CC4)CC3)cc1 (stereo not drawn) [Example 449, 4-((Dimethylamino)methyl)-N′-(tricyclo[6.2.0.03,6]deca-1,3(6),7-trien-2-ylcarbamoyl)benzenesulfonimidamide]
24 | 8 to 40 nM | – | – | CC(C)(O)c1cnc(S(N)(=O)=NC(=O)Nc2c3c(cc4c2CCC4=O)CCC3)s1 (stereo not drawn) [Example 680, 5-(2-Hydroxypropan-2-yl)-N′-((1-oxo-1,2,3,5,6,7-hexahydro-s-indacen-4-yl)carbamoyl)thiazole-2-sulfonimidamide]
25 | – | 40 to 200 nM | – | Cc1c(C2CC2)cc2c(c1NC(=O)N=S(N)(=O)c1cc(C(C)(C)O)cs1)CCC2 (stereo not drawn) [Example 465, N′-((6-cyclopropyl-5-methyl-2,3-dihydro-1H-inden-4-yl)carbamoyl)-4-(2-hydroxypropan-2-yl)thiophene-2-sulfonimidamide]
26 | 1000 to 5000 nM | – | – | CC(OC(F)F)c1ccc(S(N)(=O)=NC(=O)Nc2c3c(cc4c2CCC4)CCC3)cc1 (single isomer, unassigned) [Example 638]
27 | – | – | IC50 [1]: > 30000 nM | COC1CCc2c(csc2S(N)(=O)=NC(=O)Nc2c3c(cc4c2CCC4)CCC3)C1 (single isomer, unassigned) [Example 853, (R, S) or (S, S)-N′-((1,2,3,5,6,7-hexahydro-s-indacen-4-yl)carbamoyl)-5-methoxy-4,5,6,7-tetrahydrobenzo[c]thiophene-1-sulfonimidamide]
28 | – | – | IC50 (hTHP-1 assay containing 2% fetal bovine serum, Table B2, given as bound, read-out: IC50): > 30000 nM | CN(C)C(c1ccc(S(N)(=O)=NC(=O)Nc2c3c(cc4c2CCC4)CCC3)cc1)C(F)(F)F (single isomer, unassigned) [Example 665, (S,S) or (R,S)-4-(1-(dimethylamino)-2,2,2-trifluoroethyl)-N′-((1,2,3,5,6,7-hexahydro-s-indacen-4-yl)carbamoyl) benzenesulfonimidamide]
29 | 40 to 200 nM | – | – | CC(C)(O)c1csc([S@](N)(=O)=NC(=O)Nc2c3c(cc4c2C(=O)CC4)CCC3)c1 (single isomer, unassigned) [Example 530, (R) or (S)-4-(2-hydroxypropan-2-yl)-N′-((3-oxo-1,2,3,5,6,7-hexahydro-s-indacen-4-yl)carbamoyl) (thiophene-2-sulfonimidamide]
30 | – | – | IC50 [1]: 5000 to 30000 nM | CC(C)(O)c1nc(CO)c(S(N)(=O)=NC(=O)Nc2c3c(cc4c2C(=O)CC4)CCC3)s1 (single isomer, unassigned) [Example 807, (S) or (R)-4-(hydroxymethyl)-2-(2-hydroxypropan-2-yl)-N′-((3-oxo-1,2,3,5,6,7-hexahydro-s-indacen-4-yl)carbamoyl)thiazole-5-sulfonimidamide]
